The record followed here is US7071168B2, “Anti-cancer compounds and methods related thereto” (The Regents of the University of Colorado, priority 1998, dated 2006).

Where only a bound is given, the exact number is not on record here.

For one assay, the system named is SCLC strain SHP-77. The assay is described as follows: Colorimetric tetrazolium (MTT) assay for cell survival, SCLC strain SHP-77. It is filed as cell-based, human. The method in brief:
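MTT assay: cells seeded overnight, treated in triplicate across a concentration range for 4 days at 37 °C, 5% CO2. On day 5, MTT was added for 4 h; formazan was dissolved in acidified isopropanol and absorbance read.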

The test system of assay [1] is bradykinin response of isolated guinea pig ileum. In words: Anti-bradykinin activity on isolated guinea pig ileum. The method in brief: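 Bradykinin concentration-effect curves were run in the absence and presence of compound. Tissue: 25 mm terminal ileum from male Hartley guinea pigs fasted overnight, held at 1 g tension in O2/CO2-bubbled Krebs' solution after 1 h equilibration.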

Setting [2] is: isolated guinea pig ileum, pD2 of bradykinin is 7.4, higher numbers indicate higher potency.
[3] abbreviates: Table 1, higher numbers indicate higher potency.

For the compound `CC1(C)CC(NC(=O)C(Cc2ccc(NS(C)(=O)=O)cc2)NC(=O)C=Cc2c(F)c(F)c(F)c(F)c2F)CC(C)(C)N1` (stereo not drawn) [M648], the “MTT: ED50 for killing of SCLC strain SHP-77 in vitro” value (“MTT: ED50 for killing” below) in the assay on SCLC strain SHP-77 (SCLC strain SHP-77 in vitro) is listed as “Inact”. Also, in assay [1] (setting [2]), the “GPI: pA2 for bradykinin antagonist activity on isolated guinea pig ileum” value (shortened to “GPI: pA2”) stood at 5.0.

For the compound `CN(C(=O)C(Cc1ccc(OCc2c(Cl)cccc2Cl)cc1)NC(=O)CCc1ccccc1)C1CC(C)(C)N(C)C(C)(C)C1` (stereo not drawn) [M652], the “MTT: ED50 for killing” value in the assay with SCLC strain SHP-77 (SCLC strain SHP-77 in vitro) stood at 7.5 µM. In addition, the “GPI: pA2” value in assay [1] (setting [2]) was determined as 5.7.

Consider `CC1=C(CC(=O)NC2CC(C)(C)NC(C)(C)C2)c2cc(F)ccc2C1=Cc1ccc([S+](C)[O-])cc1` (stereo not drawn) [M654], for which the “MTT: ED50 for killing” value in the assay with SCLC strain SHP-77 (SCLC strain SHP-77 in vitro) was “Inact”. Besides, the “GPI: pA2” value in assay [1] (setting [2]) amounted to 4.5.

Regarding `CC1=C(CC(=O)NC(Cc2ccc3ccccc3c2)C(=O)NC2CC(C)(C)NC(C)(C)C2)c2cc(F)ccc2C1=Cc1ccc([S+](C)[O-])cc1` (stereo not drawn) [M656], the “MTT: ED50 for killing” value in the assay on SCLC strain SHP-77 (SCLC strain SHP-77 in vitro) is 13 µM. For the same compound, the “GPI: pA2” value in assay [1] (setting [2]) amounted to 5.4.

As to `CC1(C)CC(NC(=O)C(NC(=O)C=Cc2c(F)c(F)c(F)c(F)c2F)C(C)(C)C)CC(C)(C)N1` (stereo not drawn) [M662], the “MTT: ED50 for killing” value in the assay with SCLC strain SHP-77 (SCLC strain SHP-77 in vitro) is recorded as “Inact”. The “GPI: pA2” value in assay [1] (setting [2]) stood at 5.2.

Regarding `CN(C(=O)C(Cc1cc(I)c(OCc2c(Cl)cccc2Cl)c(I)c1)NC(=O)C=Cc1c(F)c(F)c(F)c(F)c1F)C1CC(C)(C)NC(C)(C)C1` (stereo not drawn) [M664], in the assay on SCLC strain SHP-77 (SCLC strain SHP-77 in vitro), the “MTT: ED50 for killing” value turned out to be 1.2 µM. Also, the “GPI: pA2” value in assay [1] (setting [2]) was 5.0.

Consider `CN(C)c1cccc2c(S(=O)(=O)NC(Cc3cc(I)c(OCc4c(Cl)cccc4Cl)c(I)c3)C(=O)N(C)C3CC(C)(C)NC(C)(C)C3)cccc12` (stereo not drawn) [M666], for which the “MTT: ED50 for killing” value in the assay with SCLC strain SHP-77 (SCLC strain SHP-77 in vitro) worked out at 1.3 µM. The “GPI: pA2” value in assay [1] (setting [2]) turned out to be 5.0.

For `CN(C)c1ccc(CNC(=O)C(Cc2ccc(F)cc2)NC(=O)C=Cc2c(F)c(F)c(F)c(F)c2F)cc1` (stereo not drawn) [M832], the “MTT: ED50 for killing” value in the assay with SCLC strain SHP-77 (SCLC strain SHP-77 in vitro) amounted to 47 µM. For the same compound, in assay [1] (setting [2]), the “GPI: pA2” value worked out at 4.6.

On to “(DArg-Arg-Pro-Hyp)2Dpr-Igl-Ser-DIgl-Oic-Arg [B10098]”, for which the “MTT: ED50 for killing” value in the assay with SCLC strain SHP-77 (Table 1, SHP-77, MTT, 4 days) is 20 µM. The “GPI: pA2” value in assay [1] (setting [3]) was 5.3.

For (Dns-DArg-Igl-Arg)2-DDA [M678], the “MTT: ED50 for killing” value in the assay on SCLC strain SHP-77 (SCLC strain SHP-77 in vitro) was 1.1 µM. Besides, in assay [1] (setting [2]), the “GPI: pA2” value is 5.3.

As to “(Gun)2-BApG-DArg-Arg-Pro-Hyp-Gly-Igl-Ser-DIgl-Oic-Arg [B10092]”, the “MTT: ED50 for killing” value in the assay on SCLC strain SHP-77 (Table 1, SHP-77, MTT, 4 days) is over 20 µM. For the same compound, in assay [1] (setting [3]), the “GPI: pA2” value was 8.7.

In the case of Aaa-DPhe-hPhe-Arg [M754], the “MTT: ED50 for killing” value in the assay with SCLC strain SHP-77 (Table 1, SHP-77, MTT, 4 days) is “Inact”. For the same compound, the “GPI: pA2” value in assay [1] (setting [3]) was 4.6.

Ac-Darg-Arg-Aud-DF5F-Oic-Arg [M868]: the “MTT: ED50 for killing” value in the assay with SCLC strain SHP-77 (Table 1, SHP-77, MTT, 4 days) worked out at 55 µM. Moreover, in assay [1] (setting [3]), the “GPI: pA2” value is reported as 6.5.

“Aca-c[DArg-Arg-Pro-Hyp-Gly-Thi-Ser-Nig-Oic-Arg] [B10304]”: in the assay on SCLC strain SHP-77 (Table 3, cyclic peptides), the “MTT: ED50 for killing” value is on record as “Inact”. For the same compound, the “GPI: pA2” value in assay [1] (Table 3, cyclic peptides) is 6.4.

Regarding Ava-Igl-Ser-DF5F-Oic-Arg [M806], in the assay with SCLC strain SHP-77 (Table 1, SHP-77, MTT, 4 days), the “MTT: ED50 for killing” value is “Inact”. Moreover, the “GPI: pA2” value in assay [1] (setting [3]) is reported as 5.6.

As for “BApG-DArg-Arg-Pro-Hyp-Gly-Igl-Ser-DIgl-Oic-Arg [B10084]”, the “MTT: ED50 for killing” value with SCLC strain SHP-77 (Table 1, SHP-77, MTT, 4 days) was over 20 µM. The “GPI: pA2” value in assay [1] (setting [3]) is recorded as 8.1.

For the compound D-Arg-Arg-Aud-PaF(F5c)-Arg [M726], in the assay with SCLC strain SHP-77 (Table 1, SHP-77, MTT, 4 days), the “MTT: ED50 for killing” value was “Inact”. In assay [1] (setting [3]), the “GPI: pA2” value was found to be 5.6.

For the compound “DArg-Arg-Pro-Hyp-Gly-Igl-Ser-DIgl-Oic-Arg-Eac-Eac-DArg-Arg-Pro-Hyp-Gly-Igl-Ser-DIgl-Oic-Arg [B10088]”, the “MTT: ED50 for killing” value in the assay on SCLC strain SHP-77 (Table 1, SHP-77, MTT, 4 days) came out at 4 µM. Also, the “GPI: pA2” value in assay [1] (setting [3]) was 7.1.

With “DArg-Arg-Pro-Hyp-Gly-Igl-Ser-DIgl-Oic-Arg-NH2 [B10062]”, in the assay on SCLC strain SHP-77 (Table 1, SHP-77, MTT, 4 days), the “MTT: ED50 for killing” value is recorded as “Inact”. Also, the “GPI: pA2” value in assay [1] (setting [3]) is 7.1.

Turning to “DDD-( DArg-Arg-Add-Ser-DIgl-Oic-Arg)2 [M862]”, in the assay on SCLC strain SHP-77 (Table 1, SHP-77, MTT, 4 days), the “MTT: ED50 for killing” value came out at 1.3 µM. For the same compound, the “GPI: pA2” value in assay [1] (setting [3]) came out at 5.6.

For the compound DDD-(DArg-2Nal-Arg)2 [M508], in the assay with SCLC strain SHP-77 (Table 1, SHP-77, MTT, 4 days), the “MTT: ED50 for killing” value is 23 µM. In addition, the “GPI: pA2” value in assay [1] (setting [3]) is reported as “Inact”.

Take “DDD-(DArg-Arg-Add-Ser-DIgl-PFF-Arg)2 [M864]”: the “MTT: ED50 for killing” value in the assay with SCLC strain SHP-77 (Table 1, SHP-77, MTT, 4 days) came out at 1.8 µM. Besides, the “GPI: pA2” value in assay [1] (setting [3]) is “Inact”.

As to DDD-(DArg-Arg-Aud-DF5F-Oic-Arg)2 [M846], the “MTT: ED50 for killing” value with SCLC strain SHP-77 (Table 1, SHP-77, MTT, 4 days) is 2 µM. Moreover, the “GPI: pA2” value in assay [1] (setting [3]) turned out to be 7.1.

As for DDD-(DArg-Arg-Aud-DIgl-PFF-Arg)2 [M842], the “MTT: ED50 for killing” value in the assay with SCLC strain SHP-77 (Table 1, SHP-77, MTT, 4 days) was 1.4 µM. For the same compound, the “GPI: pA2” value in assay [1] (setting [3]) is recorded as “Inact”.
